# Reference: patent publication US5068247A, “2-aminopentanoic acid compounds and their use as immunosuppressants” (priority 1989, dated 1991)
# Experiments:
# [1] = test system: allo-reactive cytotoxic T cell (EL4 target cells); test: suppression of induction of allo-reactive cytotoxic T cell in mouse allogenic mixed lymphocyte culture (MLC), 51Cr release; assay type: cell-based
# Protocol: The target cells used were leukemia cells EL4 from the syngenic (H-2^b) C57BL/6 mouse as used for preparation of the stimulator cells. By incubating 10^6 EL4 cells in the presence of 370 KBq of Na2^51 CrO4 at 37° C. for 1 hour, ^51 Cr was incorporated into the cytoplasm. The cells were washed, adjusted to the concentration of 10^4 cells/ml and used as the target cells.
# For the assay of the cytotoxic activity, 100 μl of the effector cell suspension and 100 μl of the target cell suspension were added to a 96-well flat-bottomed microculture plate, and cultured at 37° C. for 4 hours. The amount of ^51 Cr released into the supernatant was determined and the cytotoxic activity was calculated by the following formula. [formula]
# The activity of the cytotoxic T cell is expressed by LU (lytic unit) per 10^6 effector cells.
# HL60 = test: cytotoxicity to cultured tumor cell line HL60
# Protocol: (§1) Cytotoxicity to various human tumor cell lines was examined as follows:
# (§2) Cells of human cell lines, K562, MOLT4, U937 and HL60 were respectively suspended to the concentration of 4×10^5 cells/ml in the RPMI1640 culture medium supplemented with 20% FCS. Fifty μl of each suspension was added to each well of a 96-well microtest plate to which 50 μl of the test solution had been added. After culturing the suspension at 37° C. in an atmosphere of 5% carbon dioxide for 72 hours, the absorbancy at 570 nm was measured in the same way as with the colorimetry using MTT in Experiment Example 1, and the percent suppression was calculated by the following formula, which was used as an index of cytotoxicity.
# [2] = cytotoxicity to cultured tumor cell line HL60; details: human, hl60 cells, Suppression
# Protocol: as §1, §2
# [3] = test system: IL-3 production in mouse allogenic MLC; test: suppression of IL-3 production in mouse allogenic MLC; assay type: cell-based
# Protocol: Mouse allogenic MLC was carried out as follows:
# After termination of culture, the supernatant was collected and used as the supernatant of mouse allogenic MLC.
# MOLT4 = test: cytotoxicity to cultured tumor cell line MOLT4; assay type: cell-based, human
# Protocol: as §1, §2
# [4] = cytotoxicity to cultured tumor cell line MOLT4; assay type: cell-based, human; details: human, molt4 cells, read-out: Suppression
# Protocol: as §1, §2
# [5] = test system: allo-reactive cytotoxic T cells in spleen of EL4-immunized BALB/c mice; test: suppression of allo-reactive cytotoxic T cells induced by immunization of mouse with allogenic cells; assay type: in vivo
# Protocol: Male 5- to 7-week-old BALB/c mice (H-2^d) were immunized with leukemia cell EL4 derived from C57BL/6 mice (H-2^b) (10^7 cells/mouse, intraperitoneal administration), and the test substance was administered intraperitoneally 5 times at the doses of 0.001 to 3 mg/kg/day or orally at the doses of 0.3 to 10 mg/kg/day from the day of immunization. Nine to ten days after immunization, the spleen was resected from the mice to prepare a single cell suspension and the suspension was used as effector cell suspension. The ^51 Cr-release assay was carried out in the same way as in Experiment Example 3, using EL4 cells as the target cells to measure the cytotoxic activity.
# The activity of allo-reactive cytotoxic T cell is indicated by lytic unit (LU) per spleen. One lytic unit (LU) is defined as the number of effector cells required to cause 25% lysis of 5×10^3 target cells. At the same time, the body weight of mouse and number of spleen cells were also determined.
# [6] = 0.001 mg/kg/day ip × 5, Table 9C
# [7] = 0.001 mg/kg/day po × 5, Table 9D
# [8] = 0.003 mg/kg/day ip × 5, Table 9C
# [9] = 0.003 mg/kg/day po × 5, Table 9D
# [10] = 0.003 mg/kg/day po × 10, Table 9E
structure (smiles),measurement,setting,value
CCCCCCCCCCCCC/C=C/C[C@@H](O)[C@H](O)[C@@](N)(CO)C(=O)O [Example 5],Cytotoxic activity,"[1]; 0.00001 μg/ml, C3H/HeN responder",9.8 LU/10^6
same,Cytotoxic activity,"[1]; 0.0001 μg/ml, BALB/c responder",9.2 LU/10^6
same,Cytotoxic activity,"[1]; 0.0001 μg/ml, C3H/HeN responder",8.0 LU/10^6
same,Cytotoxic activity,"[1]; 0.001 μg/ml, BALB/c responder",3.7 LU/10^6
same,Cytotoxic activity,"[1]; 0.001 μg/ml, C3H/HeN responder",6.8 LU/10^6
same,Cytotoxic activity,"[1]; 0.01 μg/ml, BALB/c responder",1.6 LU/10^6
same,Cytotoxic activity,"[1]; 0.01 μg/ml, C3H/HeN responder",< 0.5 LU/10^6
same,Cytotoxic activity,"[1]; 0.1 μg/ml, BALB/c responder",< 0.5 LU/10^6
same,Cytotoxic activity,"[1]; 0.1 μg/ml, C3H/HeN responder",< 0.5 LU/10^6
same,Cytotoxic activity,"[1]; 1 μg/ml, BALB/c responder",< 0.5 LU/10^6
same,Cytotoxic activity,"[1]; 1 μg/ml, C3H/HeN responder",< 0.5 LU/10^6
same,inhibition at 10 pg/mL,"[1]; Mus musculus, T-cell, 144 h, 0.00001 μg/ml, C3H/HeN responder",35.4%
same,inhibition at 0.0001 µg/mL,"[1]; Mus musculus, T-cell, 144 h, 0.0001 μg/ml, BALB/c responder",34.1%
same,inhibition at 0.0001 µg/mL,"[1]; Mus musculus, T-cell, 144 h, 0.0001 μg/ml, C3H/HeN responder",47.5%
same,inhibition at 0.001 µg/mL,"[1]; Mus musculus, T-cell, 144 h, 0.001 μg/ml, C3H/HeN responder",54.2%
same,inhibition at 0.01 µg/mL,"[1]; Mus musculus, T-cell, 144 h, 0.01 μg/ml, C3H/HeN responder",> 95%
same,inhibition at 0.1 µg/mL,"[1]; Mus musculus, T-cell, 144 h, 0.1 μg/ml, C3H/HeN responder",> 95%
same,inhibition at 1 µg/mL,"[1]; Mus musculus, T-cell, 144 h, 1 μg/ml, C3H/HeN responder",> 95%
same,inhibition at 0.001 µg/mL,"[1]; Mus musculus, T-cell, 144 h, 0.001 μg/ml, BALB/c responder",73.2%
same,inhibition at 0.01 µg/mL,"[1]; Mus musculus, T-cell, 144 h, 0.01 μg/ml, BALB/c responder",88.4%
same,inhibition at 0.1 µg/mL,"[1]; Mus musculus, T-cell, 144 h, 0.1 μg/ml, BALB/c responder",> 95%
same,inhibition at 1 µg/mL,"[1]; Mus musculus, T-cell, 144 h, 1 μg/ml, BALB/c responder",> 95%
same,"induction of the allo-reactive cytotoxic T cell (in words), BALB/c responder",[1]; Table 3A,markedly inhibited
same,"induction of the allo-reactive cytotoxic T cell (in words), C3H/HeN responder",[1]; Table 3B,suppressed
same,Absorbancy,HL60; 0.1 μg/ml,1.505 ± 0.035
same,Absorbancy,HL60; 1 μg/ml,1.415 ± 0.010
same,Absorbancy,HL60; 10 μg/ml,1.201 ± 0.061
same,cytotoxicity at 72 h,[2]; 0.1 μg/ml,0%
same,cytotoxicity at 72 h,[2]; 1 μg/ml,5%
same,cytotoxicity at 72 h,[2]; 10 μg/ml,19.4%
same,IL-3 activity,[3]; 0.0001 μg/ml,32.7 U/ml
same,IL-3 activity,[3]; 0.001 μg/ml,19.2 U/ml
same,IL-3 activity,[3]; 0.01 μg/ml,11.5 U/ml
same,IL-3 activity,[3]; 0.1 μg/ml,7.9 U/ml
same,IL-3 activity,[3]; 1 μg/ml,7.9 U/ml
same,inhibition at 0.0001 µg/mL,"[3]; Mus musculus, 48 h, 0.0001 μg/ml",42.1%
same,inhibition at 0.001 µg/mL,"[3]; Mus musculus, 48 h, 0.001 μg/ml",76.5%
same,inhibition at 0.01 µg/mL,"[3]; Mus musculus, 48 h, 0.01 μg/ml",96.2%
same,inhibition at 0.1 µg/mL,"[3]; Mus musculus, 48 h, 0.1 μg/ml",100%
same,inhibition at 1 µg/mL,"[3]; Mus musculus, 48 h, 1 μg/ml",100%
same,Absorbancy,MOLT4; 0.1 μg/ml,1.031 ± 0.035
same,Absorbancy,MOLT4; 1 μg/ml,1.013 ± 0.013
same,Absorbancy,MOLT4; 10 μg/ml,0.967 ± 0.006
same,cytotoxicity at 72 h,[4]; 0.1 μg/ml,10.7%
same,cytotoxicity at 72 h,[4]; 1 μg/ml,12.2%
same,cytotoxicity at 72 h,[4]; 10 μg/ml,16.2%
same,Body weight 9 days after immunization,[5]; [6],23.6 ± 1.1 g
same,Cytotoxic T cell activity,[5]; [6],589 ± 415 LU/spleen
same,"Cytotoxic T cell activity, suppression",[5]; [6],49.7%
same,Number of spleen cells,[5]; [6],1.8 ± 0.2 × 10^8 cell
same,Body weight 10 days after immunization,[5]; [7],24.5 ± 1.7 g
same,Cytotoxic T cell activity,[5]; [7],1929 ± 630 LU/spleen
same,"Cytotoxic T cell activity, suppression",[5]; [7],0%
same,Number of spleen cells,[5]; [7],1.5 ± 0.2 × 10^8
same,Body weight 9 days after immunization,[5]; [8],22.8 ± 1.6 g
same,Cytotoxic T cell activity,[5]; [8],473 ± 265 LU/spleen
same,"Cytotoxic T cell activity, suppression",[5]; [8],59.6%
same,Number of spleen cells,[5]; [8],1.8 ± 0.2 × 10^8 cell
same,Body weight 10 days after immunization,[5]; [9],24.6 ± 1.1 g
same,Cytotoxic T cell activity,[5]; [9],1069 ± 400 LU/spleen
same,"Cytotoxic T cell activity, suppression",[5]; [9],30.2%
same,Number of spleen cells,[5]; [9],1.6 ± 0.3 × 10^8
same,Body weight 10 days after immunization,[5]; [10],25.0 ± 0.7 g
same,Cytotoxic T cell activity,[5]; [10],1936 ± 840 LU/spleen
same,"Cytotoxic T cell activity, suppression",[5]; [10],30.5%
